The values below are quoted from earlier work in US20040191218A1, “Pharmaceutical compositions and methods for treating cancer” (priority 2001, published 2004).

The conditions of data set [1]: carboplatin compared with cisplatin.
For another data set, the system named is relapsing ovarian cancer. To be noted: 14 patients with relapsing ovarian cancer, IFN-γ 2 mg/m^2 daily intravenously.
For the next data set, the system named is ovarian cancer. To be noted: intraperitoneal IFN-γ, 108 patients with residual disease at second-look laparotomy.
Data set [2] relates to neoplastic cells including ovarian cancer cells.

`[NH2][Pt]1([NH2])[O]C(=O)C2(CCC2)C(=O)[O]1` [carboplatin, diammine(1,1-cyclobutanedicarboxylato) platinum(II)]: the neurotoxicity and nephrotoxicity result in data set [1] is “less neurotoxicity and nephrotoxicity than cisplatin”.

In the case of “IFN-γ: lymphokine produced by T-lymphocytes; natural or recombinant interferon gamma”, in the data set on relapsing ovarian cancer, the Positive responses is 29%. For the same compound, the overall response rate in the data set with ovarian cancer was 31%. Besides, the “antiproliferative effects on neoplastic cells” value in data set [2] is recorded as “exerts antiproliferative effects”.
